According to ChEMBL document CHEMBL1142340 (Bioorg Med Chem Lett, 2008):
One block for each compound: values may come before it. The source made the active and inactive calls. The calls are words filed in the database; no cut-off is given here.

Key:
[1] = Dissociation constant, pKa of the compound; format: physicochemical
[2] = molecular target: Histone deacetylase; experiment: Inhibition of human HDAC in HeLa nuclear extracts
[3] = tested on: A549; experiment: Antiproliferative activity against human A549 cells after 3 days; format: functional, cell-based; details: A549, 72 h
[4] = tested on: A549; experiment: Antiproliferative activity against human A549 cells at 1 mM after 3 days; format: functional; details: A549, 72 h
[5] = molecular target: Histone deacetylase (Homo sapiens) (UniProt Q13547+O15379+Q9UBN7+Q92769+Q9UQL6+Q8WUI4+Q9BY41+Q96DB2+P56524+Q9UKV0+Q969S8); experiment: Inhibition of human HDAC in A549 cells assessed as increase in histone-H4 acetylation at 150 uM after 24 hrs by Western blot; format: cell-based

IC50 [2]: 9.6 µM | IC50 [3]: 154 µM
Compound: CCCC(CCC)C(=O)OCCSS(C)(=O)=O

Activity [5]: Active | IC50 [3]: > 1000 µM
Compound: CCCC(CCC)C(=O)O [VALPROIC ACID]
inhibition at 1000 µM [4]: 24%

IC50 [2]: 56.4 µM | IC50 [3]: 89 µM
Compound: CCCC(CCC)C(=O)Oc1ccc(-c2cc(=S)ss2)cc1

The next lines start with the compound.

Compound: Oc1ccc(-c2cc(=S)ss2)cc1
pKa [1]: 7.86 | IC50 [2]: 0.45 µM | IC50 [3]: 66 µM

Compound: Br.CS(=O)(=O)SCCN
IC50 [2]: 198 µM | IC50 [3]: 154 µM

Compound: CCCC(CCC)C(=O)NCCSS(C)(=O)=O
IC50 [2]: 17.5 µM

Compound: CS(=O)(=O)SCCO
IC50 [2]: 102 µM | IC50 [3]: 161 µM
